# Patent US20120022116A1, “COMPOSITIONS AND METHODS FOR THE TREATMENT OF PATHOLOGICAL CONDITION(S) RELATED TO GPR35 AND/OR GPR35-HERG COMPLEX” (priority 2010, published 2012)
# Experiments:
# [1] = test system: GPR35; experiment: DMR desensitization / antagonism mode against GPR35 agonist-induced DMR in HT29 cells; format: cell-based, human; conditions: HT29 cells pretreated with compound, then GPR35 agonist
# [2] = target: hERG channel (Homo sapiens, UniProt Q12809); experiment: Automated patch clamp recording of hERG tail current (IonWorks); conditions: hERG tail current ratio post/pre-compound, 50 uM
# [3] = target: T1, GPR35 (Homo sapiens, UniProt Q9HC97); experiment: Ca2+ mobilization assay (Fluo-4) in HEK-GPR35-Gqo5 cells; format: cell-based; conditions: for Ca2+ moblization (HEK-GPR35-Gqo5): HEK293 cells co-expressing GPR35 and Gqo5, Fluo-4, compounds 10 μM; for Ca2+ mobilization signal in cells co-expressing GPR35 and Gqo5: engineered HEK293, 10 μM
# T1 construct: myc; expressed in transfected cells; host or cells: HEK293, transient co-transfection (Lipofectamine LTX)
# [4] = test system: hERG channel; experiment: Cross-desensitization DMR assay against hERG activator mallotoxin-induced DMR in HT29 cells; conditions: HT29 cells pretreated with compound, then hERG activator mallotoxin
# hERG channel (Homo sapiens, UniProt Q12809), sequence (Q12809 whole entry): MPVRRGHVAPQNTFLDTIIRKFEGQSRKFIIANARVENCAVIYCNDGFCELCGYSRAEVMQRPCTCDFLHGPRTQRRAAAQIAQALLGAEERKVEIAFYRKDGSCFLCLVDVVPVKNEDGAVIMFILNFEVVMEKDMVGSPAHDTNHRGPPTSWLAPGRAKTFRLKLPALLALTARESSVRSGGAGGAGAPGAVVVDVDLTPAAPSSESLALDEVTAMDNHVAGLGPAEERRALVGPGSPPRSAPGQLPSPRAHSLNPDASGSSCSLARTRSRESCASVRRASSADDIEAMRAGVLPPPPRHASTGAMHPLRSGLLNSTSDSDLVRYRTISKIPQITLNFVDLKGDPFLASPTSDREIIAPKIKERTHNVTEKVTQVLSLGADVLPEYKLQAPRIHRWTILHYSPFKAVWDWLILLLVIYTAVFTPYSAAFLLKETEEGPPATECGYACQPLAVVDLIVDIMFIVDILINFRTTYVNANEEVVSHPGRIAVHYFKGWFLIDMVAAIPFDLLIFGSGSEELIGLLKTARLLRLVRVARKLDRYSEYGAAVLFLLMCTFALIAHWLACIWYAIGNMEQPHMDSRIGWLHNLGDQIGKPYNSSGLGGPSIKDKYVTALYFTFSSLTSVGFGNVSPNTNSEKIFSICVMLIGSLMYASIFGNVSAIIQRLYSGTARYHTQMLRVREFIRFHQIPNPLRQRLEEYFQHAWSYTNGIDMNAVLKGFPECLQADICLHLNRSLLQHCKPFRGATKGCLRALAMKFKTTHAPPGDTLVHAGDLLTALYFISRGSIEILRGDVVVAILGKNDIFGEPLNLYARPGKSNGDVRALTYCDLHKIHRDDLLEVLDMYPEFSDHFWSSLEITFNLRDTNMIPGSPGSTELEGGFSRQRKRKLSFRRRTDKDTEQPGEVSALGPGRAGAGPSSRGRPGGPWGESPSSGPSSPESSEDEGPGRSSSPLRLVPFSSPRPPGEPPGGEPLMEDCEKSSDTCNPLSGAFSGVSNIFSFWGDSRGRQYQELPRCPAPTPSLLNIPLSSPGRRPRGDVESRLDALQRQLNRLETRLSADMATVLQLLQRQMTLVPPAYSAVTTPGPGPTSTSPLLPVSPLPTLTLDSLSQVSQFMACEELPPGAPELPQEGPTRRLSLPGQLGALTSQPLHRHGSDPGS
# T1 sequence (Q9HC97 whole entry): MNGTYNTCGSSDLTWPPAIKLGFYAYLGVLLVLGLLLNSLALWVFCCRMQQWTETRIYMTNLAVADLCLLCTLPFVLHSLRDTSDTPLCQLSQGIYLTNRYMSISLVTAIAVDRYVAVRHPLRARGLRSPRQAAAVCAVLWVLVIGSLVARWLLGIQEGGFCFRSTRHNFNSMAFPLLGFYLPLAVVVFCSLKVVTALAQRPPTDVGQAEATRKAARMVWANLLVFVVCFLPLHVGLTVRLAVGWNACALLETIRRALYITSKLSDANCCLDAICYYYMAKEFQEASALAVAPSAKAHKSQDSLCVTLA
Structure (SMILES),Ca2+ moblization (HEK-GPR35-Gqo5) [3],Ca2+ mobilization signal in cells co-expressing GPR35 and Gqo5 [3],Desenstization to GPR35 agonist [1],Electrophysiology (HEK-hERG) [2],Desenstization to hERG activator [4]
"COC(=O)c1ccc(C=Cc2ccc(N(C)CCO)cc2)s1 [Compound 25, methyl-5-{2-[4-(N-methyl,N-2-hydroxyethyl-amino)phenyl]ethenyl}-thiophene-2-formate]",active,–,desenstized,inactive,–
"CN(CCO)c1ccc(C=Cc2ccc(C(=O)[O-])s2)cc1.[Li+] [Compound 26, 5-{2-[4-(N-methyl, N-2-hydroxyethyl-amino)phenyl]ethenyl}-thiophene-2-formate lithium]",active,–,desenstized,inactive,–
"OCc1ccc(-c2cccs2)s1 [Compound 27, 2,2′-bithiophene-5-methanol]",inactive,–,inactive,blocker,–
"O=Cc1ccc(-c2ccc(CO)s2)s1 [Compound 28, 5-hydroxymethyl-5′-formyl-2,2′-bithiophene]",inactive,–,desenstized,inactive,–
O=C([O-])c1ccc(-c2ccc(/C=C/c3ccc(N(CCO)CCO)cc3)s2)s1.[Na+] [Compound 29],active,–,desenstized,activator,partially desenstized
"O=Cc1ccc(-c2cccs2)s1 [Compound 30, 2,2′-bithiophene-5-carboxaldehyde]",inactive,–,desenstized,blocker,–
Cc1ccc(Cl)c(Nc2ccccc2C(=O)O)c1Cl [Meclofenamate],inactive,–,desenstized,–,partially desenstized
CC1=C(CC(=O)O)c2cc(F)ccc2/C1=C\c1ccc([S+](C)[O-])cc1 (centres unmarked) [Sulindac],inactive,–,desenstized,blocker,–
N#C/C(=C\c1ccc(O)c(O)c1)C(N)=O [Tyrphostin 46],–,–,desenstized,inactive,inactive
N#C/C(=C\c1ccc(O)c(O)c1)C(N)=S [Tyrphostin 47],–,–,desenstized,activator,partially desenstized
N#CC(C#N)=C(N)/C(C#N)=C/c1cc(O)c(O)c(O)c1 [Tyrphostin 51],–,–,desenstized,inactive,partially desenstized

# Continued, in another order:
Ca2+ moblization (HEK-GPR35-Gqo5) [3],Ca2+ mobilization signal in cells co-expressing GPR35 and Gqo5 [3],Structure (SMILES),Desenstization to GPR35 agonist [1],Electrophysiology (HEK-hERG) [2],Desenstization to hERG activator [4]
active,active,O=C(O)c1cc(-c2ccc(F)cc2F)ccc1O [Diflunisal],desenstized,activator,–
active,active,O=C(O)c1ccccc1Nc1cccc(C(F)(F)F)c1 [Flufenamic acid],desenstized,activator,desenstized
active,active,Cc1c(Nc2ncccc2C(=O)O)cccc1C(F)(F)F [Flunixin],desenstized,activator,–
inactive,–,O=C(O)c1cc(=O)c2ccccc2[nH]1 [Kynurenic acid],desenstized,inactive,–
active,active,O=C(O)c1cc([N+](=O)[O-])ccc1NCCCc1ccccc1 [NPPB],desenstized,activator,–
active,active,O=C(O)c1cccnc1Nc1cccc(C(F)(F)F)c1 [Niflumic acid],desenstized,activator,–
inactive,–,O=C(O)c1cc(/N=N/c2ccc(S(=O)(=O)Nc3ccccn3)cc2)ccc1O [Sulfasalazine],desenstized,inactive,–
inactive,–,O=C1OC(OC(=O)c2cccnc2Nc2cccc(C(F)(F)F)c2)c2ccccc21 (centres unmarked) [Talniflumate],desenstized,inactive,–
active,active,Cc1c(Cl)cccc1Nc1ccccc1C(=O)O [Tolfenamic acid],desenstized,blocker,–
